Like-named read-outs stand apart in the source and are kept apart here.
Assay: Plasma levels of lasofoxifene after a single oral dose in healthy postmenopausal women (LC-MS-MS)
Format: in vivo, human
Details: for concentration at 1 h: 1 hour after dosing; for concentration at 2 h: 2 hours after dosing; for concentration at 4 h: 4 hours after dosing; for concentration at 8 h: 8 hours after dosing; for concentration at 12 h: 12 hours after dosing; for concentration at 24 h: 24 hours after dosing; for concentration at 48 h: 48 hours after dosing; for concentration at 72 h: 72 hours after dosing; for concentration at 120 h: 120 hours after dosing; for concentration at 0.5 h: .5 hours after dosing
Method: A dose of 0.8 mg of lasofoxifene was administered to 12 healthy, postmenopausal women and blood samples were analyzed periodically as shown in Table 1.
A 1.0 ml sample of human plasma was analyzed for lasofoxifene according to CEDRA's Procedure TM-234 (CEDRA's address). Internal standard used for this procedure was a pentadeuterated lasofoxifene. The plasma sample containing lasofoxifene and the internal standard was extracted with MTBE. Following centrifugation, the organic layer was transferred to another tube and evaporated. An aliquot of the reconstituted sample extract was then injected onto a SCIEX API^III-PLUS LC-MS-MS instrument equipped with a short ion exchange HPLC column. Peak areas of the m/z 414→97.9 daughter ion of lasofoxifene were measured against the peak areas of the mlz 419→97.9 daughter of the internal standard. Quantitation was performed using a 1/x weighted least squares regression line generated from spiked plasma calibration samples.
The procedure of Example 1 was repeated with a dose of 10-mg lasofoxifene administered to 8 healthy postmenopausal women. Plasma levels for lasofoxifene are shown for 672 hours in Table 2.

[1] = female, human, plasma, single oral 10 mg dose, healthy post menopausal women, read-out: Mean plasma concentration, na Lasofoxifene per ml plasma
[2] = female, human, plasma, single oral dose 0.8 mg, healthy post menopausal women, read-out: Mean plasma concentration, ng Lasofoxifene per ml plasma

SMILES: Oc1ccc2c(c1)CC[C@H](c1ccccc1)[C@@H]2c1ccc(OCCN2CCCC2)cc1 [lasofoxifene, (−)-cis-6-phenyl-5-[4-(2-pyrrolidin-1-yl-ethoxy)-phenyl]-5,6,7,8-tetrahydronaphthalen-2-ol, D-tartrate]
- duration of therapeutically effective dose (level) (doses from 10 to 20 mg, see Table 2): up to 30 days
- concentration at 168 h (female, human, plasma, oral, single dose of 0.8 mg, healthy women, after 168 hours (1 week), read-out: blood level (concentration)): ~0.3 ng/mL
- concentration at 0 h (female, human, plasma, single oral 10 mg dose, healthy post menopausal women, 0 hours after dosing, read-out: Mean plasma concentration, na Lasofoxifene per ml plasma): 0 ng/mL
- concentration at 1 h [1]: 4.42 ng/mL
- concentration at 2 h [1]: 5.64 ng/mL
- concentration at 4 h [1]: 8.46 ng/mL
- concentration at 8 h [1]: 10.4 ng/mL
- concentration at 12 h [1]: 10.2 ng/mL
- concentration at 24 h [1]: 8.35 ng/mL
- concentration at 48 h [1]: 7.16 ng/mL
- concentration at 72 h [1]: 5.97 ng/mL
- concentration at 120 h [1]: 4.56 ng/mL
- concentration at 168 h (female, human, plasma, single oral 10 mg dose, healthy post menopausal women, 168 hours after dosing, read-out: Mean plasma concentration, na Lasofoxifene per ml plasma): 3.74 ng/mL
- concentration at 216 h (female, human, plasma, single oral 10 mg dose, healthy post menopausal women, 216 hours after dosing, read-out: Mean plasma concentration, na Lasofoxifene per ml plasma): 2.88 ng/mL
- concentration at 264 h (female, human, plasma, single oral 10 mg dose, healthy post menopausal women, 264 hours after dosing, read-out: Mean plasma concentration, na Lasofoxifene per ml plasma): 2.27 ng/mL
- concentration at 336 h (female, human, plasma, single oral 10 mg dose, healthy post menopausal women, 336 hours after dosing, read-out: Mean plasma concentration, na Lasofoxifene per ml plasma): 1.6 ng/mL
- concentration at 408 h (female, human, plasma, single oral 10 mg dose, healthy post menopausal women, 408 hours after dosing, read-out: Mean plasma concentration, na Lasofoxifene per ml plasma): 1.05 ng/mL
- concentration at 480 h (female, human, plasma, single oral 10 mg dose, healthy post menopausal women, 480 hours after dosing, read-out: Mean plasma concentration, na Lasofoxifene per ml plasma): 0.75 ng/mL
- concentration at 576 h (female, human, plasma, single oral 10 mg dose, healthy post menopausal women, 576 hours after dosing, read-out: Mean plasma concentration, na Lasofoxifene per ml plasma): 0.5 ng/mL
- concentration at 672 h (female, human, plasma, single oral 10 mg dose, healthy post menopausal women, 672 hours after dosing, read-out: Mean plasma concentration, na Lasofoxifene per ml plasma): 0.31 ng/mL
- concentration at 0.5 h [1]: 2.33 ng/mL
- concentration at 1 h [2]: 0.32 ng/mL
- concentration at 2 h [2]: 0.37 ng/mL
- concentration at 4 h [2]: 0.46 ng/mL
- concentration at 8 h [2]: 0.72 ng/mL
- concentration at 12 h [2]: 0.73 ng/mL
- concentration at 24 h [2]: 0.64 ng/mL
- concentration at 48 h [2]: 0.56 ng/mL
- concentration at 72 h [2]: 0.49 ng/mL
- concentration at 120 h [2]: 0.4 ng/mL
- concentration at 168 h (female, human, plasma, single oral dose 0.8 mg, healthy post menopausal women, 168 hours after dosing, read-out: Mean plasma concentration, ng Lasofoxifene per ml plasma): 0.34 ng/mL
- concentration at 0.5 h [2]: 0.13 ng/mL
- initial blood level (single dose of 0.8 mg, healthy women, within a few hours): 0.7 ng/mL

Reference: patent US6436977B1, “Dosing regimens for lasofoxifene” (Pfizer Inc., priority 1999, dated 2002)
